Experimental findings from patent US12049439B2 (OrsoBio, Inc., priority 2018, dated 2024) are described below.

For orientation: EC50 means the midpoint of the concentration-response curve.

For the assay, the system named is PC-3 cells. The assay can be described thus: PC-3 Oxygen Rate Consumption (OCR) Assay. Format: cell-based. The conditions noted are these: Homo sapiens, 0.05 h, medium with 2% FBS, OCR at 3-min post-injection normalized to % increase over DMSO-treated cells, concentration for half-maximal OCR increase, read-out: EC50-PC3-OCR-FBS-3min. The procedure: PC-3 Oxygen Rate Consumption (OCR) Assay Procedure:
One day before the assay, PC-3 cells were seeded at 2.5×10^4 cells/160 μL/well in a 96-well XFe96 cell plate, part of a FlexPak containing a cell plate and a cartridge (Agilent, Sunnyvale, CA). The cells were incubated overnight at 37° C. in a 5% CO2 and 90% humidity incubator with F12K culture medium (ThermoFisher Scientific/Invitrogen, Grand Island, NY) containing 10% FBS and 1% penicillin/streptomycin. On the day of the assay, the cells were washed twice with 300 µL/well Medium A [XF assay medium (Agilent) supplemented 10 mM glucose, 1 mM pyruvate, and 2% fetal bovine serum (FBS)], and incubated with 175 µL/well Media A for 1 hr in a 37° C., non-CO2 incubator prior to the measurement of cellular respiration. Compounds of interests were prepared in 1:2 serial dilutions with 100% DMSO and then further diluted into 8× working stock with Media A prior to being loaded to Injection Port A on a XFe96 Analyzer (Agilent). Six replicates were used for each treatment. The cartridge was calibrated in the XFe96 Analyzer 30 minute prior to the measurement of cellular respiration. Basal levels of OCR were measured three times, each using a “3-minute mixing/3-minute measurement” program. The compound effect was measured immediately after compound injection from Injection Port A, and OCR was monitored continuously 10 times, each time using a “1-minute mixing/2-minute measurement” program for a total of 30 minutes post compound injection. The level of OCR at 3-min post-injection was normalized to % increase over DMSO-treated cells. The concentration of compound required to reach the half-maximal OCR increase was defined as EC50 Table 2 contains PC3 OCR EC50 values for the compounds disclosed.
In the case of `CC(C)S(=O)(=O)Nc1cc(C(F)(F)F)ccc1C(=O)NC12CCC(C#N)(CC1)CC2` [Example 57, N-(4-cyanobicyclo[2.2.2]octan-1-yl)-2-((1-methylethyl)sulfonamido)-4-(trifluoromethyl)benzamide], the EC50 is 8.09 µM. The result for `NS(=O)(=O)c1ccc(S(=O)(=O)Nc2cc(C(F)(F)F)ccc2C(=O)NC23CC(C(F)(F)F)(C2)C3)cc1` [Example 58, 2-((4-sulfamoylphenyl)sulfonamido)-4-(trifluoromethyl)-N-(3-(trifluoromethyl)bicyclo[1.1.1]pentan-1-yl)benzamide] reads 63.4 µM; that for `O=C(NC12CC(C(F)(F)F)(C1)C2)c1ccc(C(F)(F)F)cc1NS(=O)(=O)c1cccnc1` [Example 59, 2-(pyridine-3-sulfonamido)-4-(trifluoromethyl)-N-(3-(trifluoromethyl)bicyclo[1.1.1]pentan-1-yl)benzamide], 1.84 µM; that for `CC(C)S(=O)(=O)Nc1cc(C(F)(F)F)ccc1C(=O)NC12CC(C#N)(C1)C2` [Example 60, N-(3-cyanobicyclo[1.1.1]pentan-1-yl)-2-((1-methylethyl)sulfonamido)-4-(trifluoromethyl)benzamide], 6.22 µM. The value for `Cc1ccc(C(=O)NC23CC(C(F)(F)F)(C2)C3)c(NS(=O)(=O)C(C)C)c1` [Example 61, 4-methyl-2-((1-methylethyl)sulfonamido)-N-(3-(trifluoromethyl)bicyclo[1.1.1]pentan-1-yl)benzamide] was no less than 100 µM; that for `Cc1ncc(S(=O)(=O)Nc2cc(C(F)(F)F)ccc2C(=O)NC23CC(C(F)(F)F)(C2)C3)s1` [Example 62, 2-((2-methylthiazole)-5-sulfonamido)-4-(trifluoromethyl)-N-(3-(trifluoromethyl)bicyclo[1.1.1]pentan-1-yl)benzamide] was 1.53 µM; that for `CC1(S(=O)(=O)Nc2cc(C(F)(F)F)ccc2C(=O)NC23CC(C(F)(F)F)(C2)C3)CC1` [Example 63, 2-((1-methylcyclopropane)-1-sulfonamido)-4-(trifluoromethyl)-N-(3-(trifluoromethyl)bicyclo[1.1.1]pentan-1-yl)benzamide] was 0.937 µM. The result for `CC1(S(=O)(=O)Nc2cc(C(F)(F)F)ccc2C(=O)NC23CC(C#N)(C2)C3)CC1` [Example 64, N-(3-cyanobicyclo[1.1.1]pentan-1-yl)-2-((1-methylcyclopropane)-1-sulfonamido)-4-(trifluoromethyl)benzamide] reads 5.22 µM; that for `Cc1ccc(C(=O)NC23CC(C(F)(F)F)(C2)C3)c(NS(=O)(=O)c2ccncc2)c1` [Example 65, 4-methyl-2-(pyridine-4-sulfonamido)-N-(3-(trifluoromethyl)bicyclo[1.1.1]pentan-1-yl)benzamide], 21.8 µM. Consider `CC1(S(=O)(=O)Nc2cc(C(F)(F)F)ccc2C(=O)NC23CC(C2)C3)CC1` [Example 66, N-(bicyclo[1.1.1]pentan-1-yl)-2-((1-methylcyclopropane)-1-sulfonamido)-4-(trifluoromethyl)benzamide], for which the EC50 turned out to be 8.35 µM. In the case of `CC1(S(=O)(=O)Nc2cc(C(F)(F)F)ccc2C(=O)NC23CCC(C#N)(CC2)CC3)CC1` [Example 67, N-(4-cyanobicyclo[2.2.2]octan-1-yl)-2-((1-methylcyclopropane)-1-sulfonamido)-4-(trifluoromethyl)benzamide], the concentration for a half-maximal effect (EC50) came out at 5.92 µM. As to `CC(C)S(=O)(=O)Nc1ccc(C(F)(F)F)cc1C(=O)NC12CC(C#N)(C1)C2` [Example 68, N-(3-cyanobicyclo[1.1.1]pentan-1-yl)-2-((1-methylethyl)sulfonamido)-5-(trifluoromethyl)benzamide], the EC50 stood at 5.13 µM. The result for `CC(C)S(=O)(=O)Nc1ccc(C(F)(F)F)cc1C(=O)NC12CC(C(F)(F)F)(C1)C2` [Example 69, 2-((1-methylethyl)sulfonamido)-5-(trifluoromethyl)-N-(3-(trifluoromethyl)bicyclo[1.1.1]pentan-1-yl)benzamide] reads 0.518 µM; that for `CC(C)S(=O)(=O)Nc1ccc(C(F)(F)F)cc1C(=O)NC12CC(Cl)(C1)C2` [Example 70, N-(3-chlorobicyclo[1.1.1]pentan-1-yl)-2-((1-methylethyl)sulfonamido)-5-(trifluoromethyl)benzamide], 0.591 µM. The value for `CC(C)S(=O)(=O)Nc1ccc(C(F)(F)F)cc1C(=O)NC12CC(C1)C2` [Example 71, N-(bicyclo[1.1.1]pentan-1-yl)-2-((1-methylethyl)sulfonamido)-5-(trifluoromethyl)benzamide] was 6.67 µM; that for `CC(C)S(=O)(=O)Nc1ccc(C(F)(F)F)cc1C(=O)NC12CCC(C#N)(CC1)CC2` [Example 72, N-(4-cyanobicyclo[2.2.2]octan-1-yl)-2-((1-methylethyl)sulfonamido)-5-(trifluoromethyl)benzamide] was 4.01 µM; that for `O=C(NC12CC(C(F)(F)F)(C1)C2)c1cc(C(F)(F)F)ccc1NS(=O)(=O)C1COC1` [Example 73, 2-(oxetane-3-sulfonamido)-5-(trifluoromethyl)-N-(3-(trifluoromethyl)bicyclo[1.1.1]pentan-1-yl)benzamide] was 2.62 µM.

For `O=C(NC12CC(Cl)(C1)C2)c1cc(C(F)(F)F)ccc1NS(=O)(=O)C1COC1` [Example 74, N-(3-chlorobicyclo[1.1.1]pentan-1-yl)-2-(oxetane-3-sulfonamido)-5-(trifluoromethyl)benzamide], the EC50 was determined as 6.17 µM. Regarding `N#CC12CCC(NC(=O)c3cc(C(F)(F)F)ccc3NS(=O)(=O)C3COC3)(CC1)CC2` [Example 75, N-(4-cyanobicyclo[2.2.2]octan-1-yl)-2-(oxetane-3-sulfonamido)-5-(trifluoromethyl)benzamide], the EC50 is 25.9 µM.

For `Cc1ncc(S(=O)(=O)Nc2cc(C(F)(F)F)ccc2C(=O)NC23CCC(C#N)(CC2)CC3)s1` [Example 76, N-(4-cyanobicyclo[2.2.2]octan-1-yl)-2-((2-methylthiazole)-5-sulfonamido)-4-(trifluoromethyl)benzamide], the concentration giving a half-maximal response (EC50) was found to be 9.19 µM. For `CC(C)(C)S(=O)(=O)Nc1cc(C#N)ccc1C(=O)NC12CCC(C#N)(CC1)CC2` [Example 77, 4-cyano-N-(4-cyanobicyclo[2.2.2]octan-1-yl)-2-((1,1-dimethylethyl)sulfonamido)benzamide], the 50% effective concentration (EC50) turned out to be 8.65 µM.

As for `CC(C)S(=O)(=O)Nc1cc(C#N)ccc1C(=O)NC12CCC(C#N)(CC1)CC2` [Example 78, 4-cyano-N-(4-cyanobicyclo[2.2.2]octan-1-yl)-2-((1-methylethyl)sulfonamido)benzamide], the concentration giving a half-maximal response (EC50) worked out at 39.8 µM. The value for `CS(=O)(=O)Nc1cc(F)ccc1C(=O)NC12CC(Cl)(C1)C2` [Example 79, N-(3-chlorobicyclo[1.1.1]pentan-1-yl)-4-fluoro-2-(methylsulfonamido)benzamide] was 21.2 µM; that for `CS(=O)(=O)Nc1ccc(C(F)(F)F)cc1C(=O)NC12CC(Cl)(C1)C2` [Example 80, N-(3-chlorobicyclo[1.1.1]pentan-1-yl)-2-(methylsulfonamido)-5-(trifluoromethyl)benzamide] was 2.54 µM. For the molecule `CS(=O)(=O)Nc1ccc(C(F)(F)F)cc1C(=O)NC12CCC(C(F)F)(CC1)CC2` [Example 81, N-(4-(difluoromethyl)bicyclo[2.2.2]octan-1-yl)-2-(methylsulfonamido)-5-(trifluoromethyl)benzamide], the half-maximal effective concentration (EC50) amounted to 2.39 µM. The result for `CS(=O)(=O)Nc1ccc(C(F)(F)F)cc1C(=O)NC12CCC(F)(CC1)CC2` [Example 82, N-(4-fluorobicyclo[2.2.2]octan-1-yl)-2-(methylsulfonamido)-5-(trifluoromethyl)benzamide] reads 6.32 µM; that for `CC(C)(C)S(=O)(=O)Nc1ccc(Cl)cc1C(=O)NC12CC(c3ccccc3)(C1)C2` [Example 83, 5-chloro-2-((1,1-dimethylethyl)sulfonamido)-N-(3-phenylbicyclo[1.1.1]pentan-1-yl)benzamide], 5.43 µM; that for `CC(C)(C)S(=O)(=O)Nc1ccc(Cl)cc1C(=O)NC12CC(C(F)(F)F)(C1)C2` [Example 84, 5-chloro-2-((1,1-dimethylethyl)sulfonamido)-N-(3-(trifluoromethyl)bicyclo[1.1.1]pentan-1-yl)benzamide], 1.04 µM. With `CC(C)(C)S(=O)(=O)Nc1ccc(Cl)cc1C(=O)NC12CC(C#N)(C1)C2` [Example 85, 5-chloro-N-(3-cyanobicyclo[1.1.1]pentan-1-yl)-2-((1,1-dimethylethyl)sulfonamido)benzamide], the 50% effective concentration (EC50) stood at 12.5 µM. The value for `CS(=O)(=O)c1ccc(S(=O)(=O)Nc2ccc(C(F)(F)F)cc2C(=O)NC23CC(C(F)(F)F)(C2)C3)cc1` [Example 86, 2-((4-(methylsulfonyl)phenyl)sulfonamido)-5-(trifluoromethyl)-N-(3-(trifluoromethyl)bicyclo[1.1.1]pentan-1-yl)benzamide] was 8.27 µM.
